Literature values as cited in patent US7812020B2, “Substituted pyridine derivatives” (priority 2005, dated 2010).

Columns and labels:
[1] = test system: animal models of neuropathic pain; details: in vivo
amygdala kindling model = details: complex partial seizures
rat [2] = details: following kainic acid-induced status epilepticus in the rat
[3] = test system: K(+) current in neuronal cells
rats and mice = details: oral and intraperitoneal administration; electrically induced seizures, pentylenetetrazole, picrotoxin, NMDA, DBA/2 mouse
[4] = test system: animal models of anxiety-like behaviour; details: in vivo
rat [5] = test system: rat
epileptic patients = details: clinical trials

In the case of `CCOC(=O)Nc1ccc(NCc2ccc(F)cc2)cc1N` [Retigabine, N-(2-amino-4-(4-fluorobenzylamino)-phenyl)carbamic acid ethyl ester], the “effect in neuropathic pain models” value [1] is given as “beneficial”, the “activity in amygdala kindling model” value (amygdala kindling model) is given as “active” and the “limbic neurodegeneration and markers of apoptosis” value (rat [2]) is given as “prevent limbic neurodegeneration and the expression of markers of apoptosis”. The “effect on K(+) current” value [3] was “activate a K(+) current”, the anticonvulsant activity (rats and mice) was “active” and the “activity in anxiety-like behaviour models” value [4] was “active”. The “progression of hippocampal kindling” value (rat [5]) was “delay the progression of hippocampal kindling” and the incidence of seizures (epileptic patients) was “effectiveness in reducing the incidence of seizures”.
